Values joined by “and” are separate entries in the source; they are usually repeats but may differ in a detail not shown here. Identical values can stand only once. Toxic doses and inconclusive results are not listed. Square brackets hold non-standard residues; d marks the D form. Peptide text beside a SMILES is read from it. * marks the point of attachment. ξ: configuration not given here. Cbz = O=C(OCc1ccccc1)*; ξNva = CCCC(N)C(=O)O

This test deals with P388 leukemia ip, CD2F1 mice, survival T/C. In words: NCI In Vivo Anticancer Drug Screen. Data for tumor model P388 Leukemia (intraperitoneal) in CD2F1 (CDF1) mice. The settings on record: endpoint: median survival time, higher = longer survival. The essentials:
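Mice carrying the transplanted tumor received test compound or vehicle. Survival was recorded in each group, and the value is the treated-group measurement divided by that of the vehicle-treated control group.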

Setting [1] is: dose: 50.0 mg/kg/injection, schedule: Q01DX005 (ip), vehicle: saline with Tween-80.
The mark [2] stands for this setting: dose: 100.0 mg/kg/injection, schedule: Q01DX005 (ip), vehicle: saline with Tween-80.
Where [3] appears, read: dose: 200.0 mg/kg/injection, schedule: Q01DX005 (ip), vehicle: saline with Tween-80.
The mark [4] stands for this setting: dose: 50.0 mg/kg/injection, schedule: Q01DX005 (ip), vehicle: Klucel (hydroxypropylcellulose) (HPC).
Where [5] appears, read: dose: 100.0 mg/kg/injection, schedule: Q01DX005 (ip), vehicle: Klucel (hydroxypropylcellulose) (HPC).
Where [6] appears, read: dose: 200.0 mg/kg/injection, schedule: Q01DX005 (ip), vehicle: Klucel (hydroxypropylcellulose) (HPC).

Regarding `Cn1c(CN(CCN(Cc2nc3ccccc3n2C)Cc2nc3ccccc3n2C)Cc2nc3ccccc3n2C)nc2ccccc21`, the T/C under setting [1] was 100 % of control, the T/C under setting [2] is 96 % of control and the T/C under setting [3] was 101 % of control.
As for `O=[N+]([O-])C1C(O)CSCC1O` (configuration not stated), the T/C is 104 % of control (dose: 100.0 mg/kg/injection, schedule: Q01DX001 (ip), vehicle: saline with Tween-80); 104 % of control (dose: 200.0 mg/kg/injection, schedule: Q01DX001 (ip), vehicle: saline with Tween-80); 107 % of control (dose: 400.0 mg/kg/injection, schedule: Q01DX001 (ip), vehicle: saline with Tween-80).
Turning to `CCCC(NC(=O)OCc1ccccc1)C(=O)NCC(=O)O` (configuration not stated) (Cbz-[ξNva]-Gly-OH), the T/C under setting [4] is 107 % of control, the T/C under setting [5] was 93 % of control and the T/C under setting [6] is 91 % of control.
As to `COc1ccc2c(c1)[C@@H](NC(C)=O)CCc1cc(OC)c(OC)c(OC)c1-2`, the T/C is, setting by setting: (dose: 0.25 mg/kg/injection, schedule: Q01DX005 (ip), vehicle: saline) 100 % of control and 108 % of control; (dose: 0.5 mg/kg/injection, schedule: Q01DX005 (ip), vehicle: saline) 102 % of control and 105 % of control; (dose: 1.0 mg/kg/injection, schedule: Q01DX005 (ip), vehicle: saline) 104 % of control and 108 % of control; (dose: 2.0 mg/kg/injection, schedule: Q01DX005 (ip), vehicle: saline) 110 % of control and 96 % of control; (dose: 4.0 mg/kg/injection, schedule: Q01DX005 (ip), vehicle: saline) 98 % of control and 108 % of control.
Turning to `CN(C)C(=O)COC(C(=O)N(C)C)C(OCC(=O)N(C)C)C(=O)N(C)C` (configuration not stated), the T/C reads like this: (dose: 50.0 mg/kg/injection, schedule: Q01DX005 (ip), vehicle: saline) 97 % of control; (dose: 100.0 mg/kg/injection, schedule: Q01DX005 (ip), vehicle: saline) 95 % of control; (dose: 200.0 mg/kg/injection, schedule: Q01DX005 (ip), vehicle: saline) 92 % of control.
Regarding `O=[N+]([O-])c1ccc(-c2csc(Nc3ccccn3)n2)o1`, the T/C (dose: 12.5 mg/kg/injection, schedule: Q01DX005 (ip), vehicle: saline with Tween-80) is 95 % of control; the T/C (dose: 25.0 mg/kg/injection, schedule: Q01DX005 (ip), vehicle: saline with Tween-80) was 99 % of control; the T/C under setting [1] was 88 % of control and 92 % of control.
Regarding `C=C1COC(O)(C2OCOC(C3CC(=O)NC(=O)C3)C2O)C1C` (configuration not stated), the T/C is 107 % of control (dose: 0.03 mg/kg/injection, schedule: Q01DX009 (ip), vehicle: water); 119 % of control (dose: 2.0 micrograms/kg/injection, schedule: Q01DX009 (ip), vehicle: water); 119 % of control (dose: 4.0 micrograms/kg/injection, schedule: Q01DX009 (ip), vehicle: water); 117 % of control (dose: 7.5 micrograms/kg/injection, schedule: Q01DX009 (ip), vehicle: water); 181 % of control (dose: 32.0 micrograms/kg/injection, schedule: Q01DX009 (ip), vehicle: water).
In the case of `COc1ccc(CSC(=S)Nc2ccc(C)c(Cl)c2)cc1`, the T/C is 106 % of control (dose: 50.0 mg/kg/injection, schedule: Q01DX009 (ip), vehicle: suspension in saline); 102 % of control (dose: 100.0 mg/kg/injection, schedule: Q01DX009 (ip), vehicle: suspension in saline); 111 % of control (dose: 200.0 mg/kg/injection, schedule: Q01DX009 (ip), vehicle: suspension in saline).
As to `COc1cc2c(cc1OC)-c1ccccc1COC2=O`, the T/C was 102 % of control (dose: 100.0 mg/kg/injection, schedule: Q04DX002 (ip), vehicle: saline with Tween-80); 93 % of control (dose: 200.0 mg/kg/injection, schedule: Q04DX002 (ip), vehicle: saline with Tween-80); 92 % of control (dose: 400.0 mg/kg/injection, schedule: Q04DX002 (ip), vehicle: saline with Tween-80).
As for `COc1cc(C2c3cc4c(c(OC5OC(CO)C(O)C5O)c3CC3COC(=O)C32)OCO4)cc(OC)c1OC` (configuration not stated), the T/C was 108 % of control (dose: 100.0 mg/kg/injection, schedule: Q01DX001 (ip), vehicle: Klucel (hydroxypropylcellulose) (HPC)); 108 % of control (dose: 200.0 mg/kg/injection, schedule: Q01DX001 (ip), vehicle: Klucel (hydroxypropylcellulose) (HPC)); 113 % of control (dose: 400.0 mg/kg/injection, schedule: Q01DX001 (ip), vehicle: Klucel (hydroxypropylcellulose) (HPC)).
As to `COc1cc(OCc2ccc(OCc3ccccc3)cc2)cc(OC)c1OC`, the T/C by setting is: under setting [1], 93 % of control; under setting [2], 105 % of control; under setting [3], 95 % of control.
Turning to `C=CCN(NC(=O)c1ccccc1)C(=O)c1ccccc1`, the T/C by setting is: (dose: 100.0 mg/kg/injection, schedule: Q04DX003 (ip), vehicle: saline) 105 % of control; (dose: 200.0 mg/kg/injection, schedule: Q04DX003 (ip), vehicle: saline) 100 % of control; (dose: 400.0 mg/kg/injection, schedule: Q04DX003 (ip), vehicle: saline) 110 % of control.
With `COC(=O)CCC(C(C)=O)C(=O)OC` (configuration not stated), the T/C by setting is: (dose: 60.0 mg/kg/injection, schedule: Q01DX005 (ip), vehicle: saline) 105 % of control; (dose: 120.0 mg/kg/injection, schedule: Q01DX005 (ip), vehicle: saline) 110 % of control; (dose: 240.0 mg/kg/injection, schedule: Q01DX005 (ip), vehicle: saline) 107 % of control.
As to `O=c1oc2cc(O)ccc2c2oc3cc(O)ccc3c12`, the T/C is, setting by setting: (dose: 50.0 mg/kg/injection, schedule: Q04DX003 (ip), vehicle: saline with Tween-80) 100 % of control; (dose: 100.0 mg/kg/injection, schedule: Q04DX003 (ip), vehicle: saline with Tween-80) 94 % of control; (dose: 200.0 mg/kg/injection, schedule: Q04DX003 (ip), vehicle: saline with Tween-80) 93 % of control; (dose: 400.0 mg/kg/injection, schedule: Q04DX003 (ip), vehicle: saline with Tween-80) 93 % of control.
For `COc1ccc2c(N/N=C/c3ccc4c(c3)OCO4)cc(C)nc2c1`, the T/C is 95 % of control (dose: 1.5 mg/kg/injection, schedule: Q01DX005 (ip), vehicle: Klucel (hydroxypropylcellulose) (HPC)); 93 % of control (dose: 3.0 mg/kg/injection, schedule: Q01DX005 (ip), vehicle: Klucel (hydroxypropylcellulose) (HPC)); 95 % of control (dose: 6.0 mg/kg/injection, schedule: Q01DX005 (ip), vehicle: Klucel (hydroxypropylcellulose) (HPC)); 88 % of control (dose: 6.25 mg/kg/injection, schedule: Q01DX005 (ip), vehicle: Klucel (hydroxypropylcellulose) (HPC)); 107 % of control (dose: 12.5 mg/kg/injection, schedule: Q01DX005 (ip), vehicle: Klucel (hydroxypropylcellulose) (HPC)); 88 % of control (dose: 25.0 mg/kg/injection, schedule: Q01DX005 (ip), vehicle: Klucel (hydroxypropylcellulose) (HPC)).
Regarding `Nc1nc(Cl)nc2c1ncn2C1OC(CO)C(O)C1O` (configuration not stated), the T/C (dose: 3.1 mg/kg/injection, schedule: Q01DX010 (ip), vehicle: carboxymethylcellulose (CMC)) was 105 % of control; the T/C (dose: 6.2 mg/kg/injection, schedule: Q01DX010 (ip), vehicle: carboxymethylcellulose (CMC)) was 120 % of control; the T/C (dose: 25.0 mg/kg/injection, schedule: Q01DX010 (ip), vehicle: carboxymethylcellulose (CMC)) was 150 % of control.
On to `O=C1SC(Nc2cccc([N+](=O)[O-])c2)/C(=N\N=C2/C(Nc3cccc([N+](=O)[O-])c3)SC(=O)N2Cc2ccccc2)N1Cc1ccccc1` (configuration not stated), for which the T/C was 92 % of control under setting [4] and 87 % of control under setting [5].
In the case of `Nc1ccc(-c2ccc(N)cc2)cc1`, the T/C runs as follows: (dose: 100.0 mg/kg/injection, schedule: Q01DX009 (ip), vehicle: saline with Tween-80) 90 % of control; (dose: 200.0 mg/kg/injection, schedule: Q01DX009 (ip), vehicle: saline with Tween-80) 100 % of control; (dose: 400.0 mg/kg/injection, schedule: Q01DX009 (ip), vehicle: saline with Tween-80) 95 % of control.
Consider `CN(CN(C)N=Nc1ccc(Cl)cc1)CN(C)N=Nc1ccc(Cl)cc1`, for which the T/C was 104 % of control (dose: 60.0 mg/kg/injection, schedule: Q01DX005 (ip), vehicle: Klucel (hydroxypropylcellulose) (HPC)); 110 % of control (dose: 120.0 mg/kg/injection, schedule: Q01DX005 (ip), vehicle: Klucel (hydroxypropylcellulose) (HPC)); 110 % of control (dose: 240.0 mg/kg/injection, schedule: Q01DX005 (ip), vehicle: Klucel (hydroxypropylcellulose) (HPC)).
As for `Cc1cccc(N2C(=O)C=C(NCc3nc4ccccc4[nH]3)C2c2ccccc2)c1` (configuration not stated), the T/C is 104 % of control under setting [4], 100 % of control under setting [5] and 100 % of control under setting [6].
